Assay [1] concerns the target PIK3CB/PIK3R1 (p110 beta/p85 alpha) (Homo sapiens, UniProt P42338). Kind of assay: Tyrosine kinase inhibition assay. It is filed as biochemical. The conditions noted are these: single concentration 1.0 μM, read-out: percent inhibition. As for the experimental part:
(§1) Tyrosine kinase inhibition assays were performed at ThermoFisher Life Technologies (Madison, WI, USA) using standard protocols (SelectScreen Biochemical Profiling Service, Thermo Fisher Scientific). ATP concentrations used were at the apparent Km. Test compounds were screened in 1% dimethylsulffoxide (DMSO) (final concentration) in the well. For 10-point titrations, 3-fold serial dilutions were conducted from the starting concentration of […]. All Peptide/Kinase Mixtures were diluted to a 2× working concentration in the appropriate Kinase Buffer. All ATP Solutions were diluted to a 4× working concentration in Kinase Buffer (50 mM HEPES pH 7.5, 0.01% BRIJ-35, 10 mM MgCl2, 1 mM EGTA). The apparent ATP Km was previously determined using a Z′-LYTE assay. The Development Reagent was diluted in Development Buffer.
(§2) The inhibition activities of compounds were determined in biochemical assays using single concentration (1.0 μM) measurements. The results were provided as percent inhibition values. A compound displaying a percent inhibition value of greater 80% was defined as a hit. 99 different tyrosine kinases were used.

The next assay addresses IGF1R (Homo sapiens, UniProt P08069). Kind of assay: Tyrosine kinase inhibition assay. It is filed as biochemical. The conditions noted are these: single concentration 1.0 μM, read-out: percent inhibition. The method, then: as §1, §2
Another assay addresses T1, TEC (Homo sapiens, UniProt P42680).
T1 sequence (P42680 1-631): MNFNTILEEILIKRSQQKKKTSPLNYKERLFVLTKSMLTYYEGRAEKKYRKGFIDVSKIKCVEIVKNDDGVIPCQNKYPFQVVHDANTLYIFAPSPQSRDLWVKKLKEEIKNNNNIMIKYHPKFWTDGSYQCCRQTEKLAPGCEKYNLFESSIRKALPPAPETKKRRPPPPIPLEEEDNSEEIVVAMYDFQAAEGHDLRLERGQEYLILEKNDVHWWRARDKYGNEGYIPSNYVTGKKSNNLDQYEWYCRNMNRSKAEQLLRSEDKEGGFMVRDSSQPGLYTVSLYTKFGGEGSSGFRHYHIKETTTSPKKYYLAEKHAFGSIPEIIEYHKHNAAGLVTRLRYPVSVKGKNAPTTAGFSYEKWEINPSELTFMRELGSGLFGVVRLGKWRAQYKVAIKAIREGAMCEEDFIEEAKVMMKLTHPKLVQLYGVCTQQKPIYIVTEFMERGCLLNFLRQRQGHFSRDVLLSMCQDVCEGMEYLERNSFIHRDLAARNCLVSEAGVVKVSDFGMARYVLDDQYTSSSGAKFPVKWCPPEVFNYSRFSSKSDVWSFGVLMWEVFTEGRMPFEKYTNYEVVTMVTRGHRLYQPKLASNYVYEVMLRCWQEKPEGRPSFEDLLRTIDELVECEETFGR
In words: Tyrosine kinase inhibition assay. The note with it: single concentration 1.0 μM, read-out: percent inhibition. The class given is biochemical. As for the experimental part:
as §1, §2

Assay [2] has as its system NCI-60 human cancer cell lines. Kind of assay: NCI-60 screen (SRB), panel average. It is filed as cell-based. The note with it: average over the NCI-60 cell lines of the table. The method, then:
The human tumor cell lines of the cancer screening panel are grown in RPMI 1640 medium containing 5% fetal bovine serum and 2 mM L-glutamine. For a typical screening experiment, cells are inoculated into 96 well microtiter plates in 100 μL at plating densities ranging from 5,000 to 40,000 cells/well depending on the doubling time of individual cell lines. After cell inoculation, the microtiter plates are incubated at 37° C., 5% CO2, 95% air and 100% relative humidity for 24 h prior to addition of experimental drugs. After 24 h, two plates of each cell line are fixed in situ with TCA, to represent a measurement of the cell population for each cell line at the time of drug addition (Tz). Experimental drugs are solubilized in dimethyl sulfoxide at 400-fold the desired final maximum test concentration and stored frozen prior to use. At the time of drug addition, an aliquot of frozen concentrate is thawed and diluted to twice the desired final maximum test concentration with complete medium containing 50 µg/ml gentamicin. An additional four, 10-fold or M log serial dilutions are made to provide a total of five drug concentrations plus control. Aliquots of 100 μl of these different drug dilutions are added to the appropriate microtiter wells already containing 100 μl of medium, resulting in the required final drug concentrations. Following drug addition, the plates are incubated for an additional 48 h at 37° C., 5% CO2, 95% air, and 100% relative humidity. For adherent cells, the assay is terminated by the addition of cold TCA. Cells are fixed in situ by the gentle addition of 50 μl of cold 50% (w/v) TCA (final concentration, 10% TCA) and incubated for 60 minutes at 4° C. The supernatant is discarded, and the plates are washed five times with tap water and air dried. Sulforhodamine B (SRB) solution (100 l) at 0.4% (w/v) in 1% acetic acid is added to each well, and plates are incubated for 10 minutes at room temperature. […] Bound stain is subsequently solubilized with 10 mM trizma base, and the absorbance is read on an automated plate reader at a wavelength of 515 nm. […]

Results on five compounds are retold here after patent US20250120967A1, “TYROSINE KINASES INHIBITORS AND USES THEREOF” (GREAT NOVEL THERAPEUTICS BIOTECH & MEDICALS CORPORATION, priority 2023, published 2025).

PIK3CB/PIK3R1 (p110 beta/p85 alpha), sequence (P42338 whole entry): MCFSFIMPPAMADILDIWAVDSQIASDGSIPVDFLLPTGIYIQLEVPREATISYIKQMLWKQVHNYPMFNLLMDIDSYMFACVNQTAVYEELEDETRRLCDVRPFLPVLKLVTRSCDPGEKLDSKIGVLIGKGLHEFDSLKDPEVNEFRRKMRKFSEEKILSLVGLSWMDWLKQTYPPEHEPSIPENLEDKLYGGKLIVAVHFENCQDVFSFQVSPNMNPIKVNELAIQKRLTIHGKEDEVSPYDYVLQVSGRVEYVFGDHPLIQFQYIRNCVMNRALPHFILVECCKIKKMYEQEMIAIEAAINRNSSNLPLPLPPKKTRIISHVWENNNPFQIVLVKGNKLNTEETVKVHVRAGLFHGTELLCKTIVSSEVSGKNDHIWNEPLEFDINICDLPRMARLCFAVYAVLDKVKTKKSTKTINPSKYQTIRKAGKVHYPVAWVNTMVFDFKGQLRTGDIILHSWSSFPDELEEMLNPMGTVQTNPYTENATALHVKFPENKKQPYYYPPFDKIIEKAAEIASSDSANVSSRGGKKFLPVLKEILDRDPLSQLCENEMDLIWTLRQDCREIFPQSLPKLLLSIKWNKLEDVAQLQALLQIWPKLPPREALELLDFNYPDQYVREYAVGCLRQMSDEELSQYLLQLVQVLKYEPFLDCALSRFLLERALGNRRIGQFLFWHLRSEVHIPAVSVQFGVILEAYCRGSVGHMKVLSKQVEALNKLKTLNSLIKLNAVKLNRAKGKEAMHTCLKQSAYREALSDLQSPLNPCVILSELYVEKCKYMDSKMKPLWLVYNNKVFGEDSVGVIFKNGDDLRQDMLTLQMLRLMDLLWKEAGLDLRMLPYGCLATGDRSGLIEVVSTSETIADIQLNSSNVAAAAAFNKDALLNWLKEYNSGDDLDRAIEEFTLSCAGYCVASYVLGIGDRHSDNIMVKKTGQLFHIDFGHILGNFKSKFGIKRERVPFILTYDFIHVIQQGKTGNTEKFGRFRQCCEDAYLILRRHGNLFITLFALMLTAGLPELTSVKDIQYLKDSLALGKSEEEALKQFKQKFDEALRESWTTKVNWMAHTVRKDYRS
PIK3CB/PIK3R1 (p110 beta/p85 alpha), sequence (P27986 whole entry partner): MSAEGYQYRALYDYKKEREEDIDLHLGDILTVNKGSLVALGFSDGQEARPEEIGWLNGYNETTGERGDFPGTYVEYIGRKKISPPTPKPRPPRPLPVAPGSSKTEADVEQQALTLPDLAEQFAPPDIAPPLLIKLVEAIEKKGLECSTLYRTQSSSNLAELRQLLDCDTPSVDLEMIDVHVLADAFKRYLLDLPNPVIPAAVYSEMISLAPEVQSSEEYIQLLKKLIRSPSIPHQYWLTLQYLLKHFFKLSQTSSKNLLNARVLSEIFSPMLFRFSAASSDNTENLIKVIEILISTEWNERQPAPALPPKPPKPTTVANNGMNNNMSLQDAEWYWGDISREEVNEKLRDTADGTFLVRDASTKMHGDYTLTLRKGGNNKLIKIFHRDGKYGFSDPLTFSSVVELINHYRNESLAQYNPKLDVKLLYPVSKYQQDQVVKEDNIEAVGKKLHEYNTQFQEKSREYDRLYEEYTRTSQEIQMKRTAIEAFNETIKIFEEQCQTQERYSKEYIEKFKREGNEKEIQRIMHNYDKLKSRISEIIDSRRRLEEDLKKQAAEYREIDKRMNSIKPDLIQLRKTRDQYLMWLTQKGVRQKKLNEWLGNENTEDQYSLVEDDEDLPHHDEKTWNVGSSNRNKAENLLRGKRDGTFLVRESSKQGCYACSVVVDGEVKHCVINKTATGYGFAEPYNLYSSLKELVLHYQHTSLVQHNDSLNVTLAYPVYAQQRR
IGF1R, sequence (P08069 31-1367): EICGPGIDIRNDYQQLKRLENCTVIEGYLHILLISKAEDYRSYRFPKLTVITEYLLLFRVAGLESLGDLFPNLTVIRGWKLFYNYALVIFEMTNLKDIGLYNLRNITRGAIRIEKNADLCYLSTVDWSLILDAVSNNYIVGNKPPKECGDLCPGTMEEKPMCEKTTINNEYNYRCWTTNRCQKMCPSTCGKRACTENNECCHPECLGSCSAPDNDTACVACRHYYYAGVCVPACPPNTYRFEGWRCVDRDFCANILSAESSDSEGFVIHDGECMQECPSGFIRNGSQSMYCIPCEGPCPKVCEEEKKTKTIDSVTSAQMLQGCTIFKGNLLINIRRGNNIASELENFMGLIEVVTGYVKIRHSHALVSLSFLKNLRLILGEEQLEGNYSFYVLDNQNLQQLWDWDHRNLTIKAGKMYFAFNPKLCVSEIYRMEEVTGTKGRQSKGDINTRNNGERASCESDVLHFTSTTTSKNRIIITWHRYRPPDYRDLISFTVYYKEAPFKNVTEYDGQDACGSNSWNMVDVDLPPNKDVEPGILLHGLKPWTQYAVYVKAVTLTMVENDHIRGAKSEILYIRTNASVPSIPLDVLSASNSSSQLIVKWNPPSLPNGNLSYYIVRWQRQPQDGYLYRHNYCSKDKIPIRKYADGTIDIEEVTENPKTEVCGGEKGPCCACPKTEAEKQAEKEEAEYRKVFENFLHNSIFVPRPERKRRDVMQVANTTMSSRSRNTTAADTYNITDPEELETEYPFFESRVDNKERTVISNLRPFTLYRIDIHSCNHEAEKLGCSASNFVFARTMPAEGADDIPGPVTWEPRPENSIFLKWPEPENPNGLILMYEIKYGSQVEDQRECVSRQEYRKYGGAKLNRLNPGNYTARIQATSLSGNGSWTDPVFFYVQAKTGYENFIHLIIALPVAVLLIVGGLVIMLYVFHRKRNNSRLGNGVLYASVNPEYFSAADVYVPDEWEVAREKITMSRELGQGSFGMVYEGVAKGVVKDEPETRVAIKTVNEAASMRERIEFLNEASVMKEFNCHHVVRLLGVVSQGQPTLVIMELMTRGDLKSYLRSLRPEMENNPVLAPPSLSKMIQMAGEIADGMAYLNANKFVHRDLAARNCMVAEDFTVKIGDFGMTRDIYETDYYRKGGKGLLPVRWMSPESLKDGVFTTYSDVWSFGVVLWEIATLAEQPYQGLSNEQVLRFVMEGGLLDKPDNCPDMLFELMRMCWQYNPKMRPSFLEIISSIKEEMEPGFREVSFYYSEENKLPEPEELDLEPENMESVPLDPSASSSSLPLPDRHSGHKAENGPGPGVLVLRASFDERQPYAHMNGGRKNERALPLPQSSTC

With `COc1cc2nccc(Oc3ccc(NC(=O)C4(C(=O)Nc5ccc(F)cc5)CC4)cc3)c2cc1OC` [Cabozantinib, reference compound], the values for the inhibition at 1 µM (in assay [1]; on IGF1R; at TEC) were 2%, 15% and 5%, respectively.

As to `COc1cc2nccc(Oc3ccc(NC(=O)C4(NC(=O)c5ccc(F)cc5)CC4)cc3F)c2cc1OC` [Cbo-02, N-(1-((4-((6,7-diMethoxyquinolin-4-yl)oxy)-3-fluorophenyl)carbamoyl)cyclopropyl)-4-fluorobenzamide], the inhibition at 1 µM in assay [1] amounted to 3%; at IGF1R, 13%; at TEC it was 29%. Also, the GI50 in assay [2] worked out at 2560 nM.

With `COc1cc2nccc(Oc3ccc(NC(=O)C4(NC(=O)c5ccc(F)cc5)CC4)cc3F)c2cc1Oc1ccc(N)cc1F` [Cbo-10], the inhibition at 1 µM in assay [1] was found to be 22%; on IGF1R, 27%; at TEC it was 80%. Also, in assay [2], growth was halved (GI50) at 1570 nM.

With `COc1cc2nccc(Oc3ccc(NC(=O)C4(NC(=O)c5ccc(F)cc5)CC4)cc3F)c2cc1Oc1c(F)cc(N)cc1F` [Cbo-14], the results for the inhibition at 1 µM (in assay [1]; at IGF1R; at TEC) were 0%, 35% and 77%, respectively.

Consider `COc1cc2nccc(Oc3ccc(NC(=O)C4(C(=O)Nc5ccc(F)cc5)CC4)cc3F)c2cc1Oc1ccc(N)cc1F` [Cbo-23], for which the inhibition at 1 µM was -4% in assay [1], 52% on IGF1R and 37% at TEC. In assay [2], this compound displayed a GI50 of 730 nM.

Broadly, the inhibition is the relative decrease from the control value, in per cent. As usually defined, the GI50 is the concentration that inhibits growth by half.
